{"source": "patent US20250179061A1", "about": "(SIRONAX LTD., priority 2022, published 2025)", "note": "Counter-ions that a name gives are not always drawn."}
{"test_system": "HT-29 cells", "assay": "HT-29 necroptosis cell viability assay (TNF-α/SMAC mimetic/zVAD-FMK, CellTiter-Glo)", "type": "cell-based", "conditions": "Homo sapiens, HT-29, HT-29 necroptosis cell viability assay; class symbols for IC50; read-out: Activity", "in_short": "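HT-29 cells (~5,000/well, overnight) in FBS-free McCoy's 5A with TNF-α 10 ng/ml, SMAC mimetic 6 μM and zVAD-FMK 10 μM plus 10-point 1:3 compound titration, 20 h at 37°C. ATP measured by CellTiter-Glo luminescence; IC50 as geometric mean of duplicates.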", "units": {"IC50": "nM"}}
{"smiles": "COC1(C)CN(c2nccc(Oc3ccc(-n4ncn(Cc5c(F)cccc5Cl)c4=O)cc3)c2F)C1", "note": "[Example 491, 4-(2-chloro-6-fluorobenzyl)-2-(4-((3-fluoro-2-(3-methoxy-3-methylazetidin-1-yl)pyridin-4-yl)oxy)phenyl)-2,4-dihydro-3H-1,2,4-triazol-3-one]", "IC50": "< 100"}
{"smiles": "CCOC1CN(c2cc(S(=O)(=O)c3ccc(-n4ncn(Cc5c(F)cccc5F)c4=O)cc3)ccn2)C1", "note": "[Example 492, 4-(2,6-difluorobenzyl)-2-(4-((2-(3-ethoxyazetidin-1-yl)pyridin-4-yl)sulfonyl)phenyl)-2,4-dihydro-3H-1,2,4-triazol-3-one]", "IC50": "< 100"}
{"smiles": "CC1(O)CN(c2cc(S(=O)(=O)c3ccc(-n4ncn(Cc5c(F)cccc5F)c4=O)cc3)ccn2)C1", "note": "[Example 493, 4-(2,6-difluorobenzyl)-2-(4-((2-(3-hydroxy-3-methylazetidin-1-yl)pyridin-4-yl)sulfonyl)phenyl)-2,4-dihydro-3H-1,2,4-triazol-3-one]", "IC50": "< 100"}
{"smiles": "CCOC1CN(c2nccc(Oc3ccc(-n4ncn(Cc5c(F)cccc5F)c4=O)cc3Cl)c2F)C1", "note": "[Example 494, 2-(3-chloro-4-((2-(3-ethoxyazetidin-1-yl)-3-fluoropyridin-4-yl)oxy)phenyl)-4-(2,6-difluorobenzyl)-2,4-dihydro-3H-1,2,4-triazol-3-one]", "IC50": "< 100"}
{"smiles": "CCOC1CN(c2cc(Oc3ccc(-n4ncn(Cc5c(F)cccc5F)c4=O)cc3Cl)c(F)cn2)C1", "note": "[Example 495, 2-(3-chloro-4-((2-(3-ethoxyazetidin-1-yl)-5-fluoropyridin-4-yl)oxy)phenyl)-4-(2,6-difluorobenzyl)-2,4-dihydro-3H-1,2,4-triazol-3-one]", "IC50": "< 100"}
{"smiles": "COC1(C)CN(c2cc(Oc3ccc(-n4ncn(Cc5c(F)cccc5F)c4=O)cc3Cl)c(F)cn2)C1", "note": "[Example 496, 2-(3-chloro-4-((5-fluoro-2-(3-methoxy-3-methylazetidin-1-yl)pyridin-4-yl)oxy)phenyl)-4-(2,6-difluorobenzyl)-2,4-dihydro-3H-1,2,4-triazol-3-one]", "IC50": "< 100"}
{"smiles": "COC1(C)CN(c2nccc(Oc3ccc(-n4ncn(Cc5c(F)cccc5F)c4=O)cc3Cl)c2F)C1", "note": "[Example 497, 2-(3-chloro-4-((3-fluoro-2-(3-methoxy-3-methylazetidin-1-yl)pyridin-4-yl)oxy)phenyl)-4-(2,6-difluorobenzyl)-2,4-dihydro-3H-1,2,4-triazol-3-one]", "IC50": "< 100"}
{"smiles": "O=c1n(Cc2c(F)cccc2F)cnn1-c1ccc(Oc2ccnc(N3CCC34CCC4)c2)cc1", "note": "[Example 498, 2-(4-((2-(1-azaspiro[3.3]heptan-1-yl)pyridin-4-yl)oxy)phenyl)-4-(2,6-difluorobenzyl)-2,4-dihydro-3H-1,2,4-triazol-3-one]", "IC50": "100 to 1000"}
{"smiles": "CC(C)(C)OC(=O)N1CC2(CCN2c2cc(Oc3ccc(-n4ncn(Cc5c(F)cccc5F)c4=O)cc3)ccn2)C1", "note": "[Example 499, tert-butyl 1-(4-(4-(4-(2,6-difluorobenzyl)-5-oxo-4,5-dihydro-1H-1,2,4-triazol-1-yl)phenoxy)pyridin-2-yl)-1,6-diazaspiro[3.3]heptane-6-carboxylate]", "IC50": "100 to 1000"}
{"smiles": "COC1(C)CN(c2cc(Oc3ccc(-n4ncn(Cc5c(F)cccc5F)c4=O)cc3)ccn2)C1", "note": "[Example 500, 4-(2,6-difluorobenzyl)-2-(4-((2-(3-methoxy-3-methylazetidin-1-yl)pyridin-4-yl)oxy)phenyl)-2,4-dihydro-3H-1,2,4-triazol-3-one]", "IC50": "< 100"}
{"smiles": "CCOC1(C)CN(c2cc(Oc3ccc(-n4ncn(Cc5c(F)cccc5F)c4=O)cc3Cl)c(F)cn2)C1", "note": "[Example 501, 2-(3-chloro-4-((2-(3-ethoxy-3-methylazetidin-1-yl)-5-fluoropyridin-4-yl)oxy)phenyl)-4-(2,6-difluorobenzyl)-2,4-dihydro-3H-1,2,4-triazol-3-one]", "IC50": "< 100"}
{"smiles": "CCOC1(C)CN(c2nccc(Oc3ccc(-n4ncn(Cc5c(F)cccc5F)c4=O)cc3Cl)c2F)C1", "note": "[Example 502, 2-(3-chloro-4-((2-(3-ethoxy-3-methylazetidin-1-yl)-3-fluoropyridin-4-yl)oxy)phenyl)-4-(2,6-difluorobenzyl)-2,4-dihydro-3H-1,2,4-triazol-3-one]", "IC50": "< 100"}
{"smiles": "CCOC1(C)CN(c2nccc(Oc3ccc(-n4ncn(Cc5c(F)cccc5F)c4=O)cc3Cl)c2Cl)C1", "note": "[Example 503, 2-(3-chloro-4-((3-chloro-2-(3-ethoxy-3-methylazetidin-1-yl)pyridin-4-yl)oxy)phenyl)-4-(2,6-difluorobenzyl)-2,4-dihydro-3H-1,2,4-triazol-3-one]", "IC50": "< 100"}
{"smiles": "CCOC1(C)CN(c2cc(Oc3ccc(-n4ncn(Cc5c(F)cccc5F)c4=O)cc3Cl)c(Cl)cn2)C1", "note": "[Example 504, 2-(3-chloro-4-((5-chloro-2-(3-ethoxy-3-methylazetidin-1-yl)pyridin-4-yl)oxy)phenyl)-4-(2,6-difluorobenzyl)-2,4-dihydro-3H-1,2,4-triazol-3-one]", "IC50": "< 100"}
{"smiles": "CC1(OC(F)(F)F)CN(c2cc(Oc3ccc(-n4ncn(Cc5c(F)cccc5F)c4=O)cc3F)c(F)cn2)C1", "note": "[Example 505, 4-(2,6-difluorobenzyl)-2-(3-fluoro-4-((5-fluoro-2-(3-methyl-3-(trifluoromethoxy)azetidin-1-yl)pyridin-4-yl)oxy)phenyl)-2,4-dihydro-3H-1,2,4-triazol-3-one]", "IC50": "< 100"}
{"smiles": "CC1(OC(F)(F)F)CN(c2cc(Oc3ccc(-n4ncn(Cc5c(F)cccc5F)c4=O)cc3F)c(Cl)cn2)C1", "note": "[Example 506, 2-(4-((5-chloro-2-(3-methyl-3-(trifluoromethoxy)azetidin-1-yl)pyridin-4-yl)oxy)-3-fluorophenyl)-4-(2,6-difluorobenzyl)-2,4-dihydro-3H-1,2,4-triazol-3-one]", "IC50": "< 100"}
{"smiles": "Cc1nc(N2CC(C)(N)C2)sc1C(=O)c1ccc(-n2ncn(Cc3c(F)cccc3F)c2=O)cc1", "note": "[Example 507, 2-(4-(2-(3-amino-3-methylazetidin-1-yl)-4-methylthiazole-5-carbonyl)phenyl)-4-(2,6-difluorobenzyl)-2,4-dihydro-3H-1,2,4-triazol-3-one trifluoroacetate]", "IC50": "100 to 1000"}
{"smiles": "Cc1nc(N2CC(C)(NC(=O)OC(C)(C)C)C2)sc1C(=O)c1ccc(-n2ncn(Cc3c(F)cccc3F)c2=O)cc1", "note": "[Example 508, tert-butyl (1-(5-(4-(4-(2,6-difluorobenzyl)-5-oxo-4,5-dihydro-1H-1,2,4-triazol-1-yl)benzoyl)-4-methylthiazol-2-yl)-3-methylazetidin-3-yl)carbamate]", "IC50": "100 to 1000"}
{"smiles": "Cc1nc(N2CC(C)(N)C2)sc1Cc1ccc(-n2ncn(Cc3c(F)cccc3F)c2=O)cc1", "note": "[Example 509, 2-(4-((2-(3-amino-3-methylazetidin-1-yl)-4-methylthiazol-5-yl)methyl)phenyl)-4-(2,6-difluorobenzyl)-2,4-dihydro-3H-1,2,4-triazol-3-one]", "IC50": "< 100"}
{"smiles": "Cc1nc(N2CC(C)(C#N)C2)sc1C(=O)c1ccc(-n2ncn(Cc3c(F)cccc3F)c2=O)cc1", "note": "[Example 510, 1-(5-(4-(4-(2,6-difluorobenzyl)-5-oxo-4,5-dihydro-1H-1,2,4-triazol-1-yl)benzoyl)-4-methylthiazol-2-yl)-3-methylazetidine-3-carbonitrile]", "IC50": "100 to 1000"}
{"smiles": "Cc1nc(N2CC(C)(C#N)C2)sc1C(O)c1ccc(-n2ncn(Cc3c(F)cccc3F)c2=O)cc1", "note": "(stereo not drawn) [Example 511, 1-(5-((4-(4-(2,6-difluorobenzyl)-5-oxo-4,5-dihydro-1H-1,2,4-triazol-1-yl)phenyl)(hydroxy)methyl)-4-methylthiazol-2-yl)-3-methylazetidine-3-carbonitrile]", "IC50": "1000 to 10000"}
